Laboratory results: the supplement of paper PMC10307832

Assays:
Assay in all cases: relative viability (nuclei count vs DMSO), 5 days (fraction); higher = more cells survive
[1] = compound: COc1cc2nccc(Oc3ccc(NC(=O)C4(C(=O)Nc5ccc(F)cc5)CC4)cc3)c2cc1OC [Cabozantinib]
Procedure, shortened: (§1)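 Hoechst staining, done together with fixation and permeabilisation, marked nuclei for 4× imaging and MetaXpress counting. This followed 5 days without medium change after lung cancer cell lines, kept overnight at 37 °C in 1536-well plates, were pinned with five library-drug doses (not always all listed) spaced by √10 on vehicle-anchored plates. Viability is the ratio of treated-well to vehicle-well nuclei, expressed as a median across plates. Plates passed only at control CV below 25% with at least one doubling.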

[2] = compound: C1=CC(=CC=C1NC(=S)NNC2=C(C=C(C=C2[N+](=O)[O-])C(F)(F)F)[N+](=O)[O-])F [Kobe2602]
Procedure, shortened: as §1

[3] = compound: O[C@@H](COc1cccc2ncccc12)CN1CCN([C@@H]2c3ccccc3[C@@H]3[C@H](c4ccccc42)C3(F)F)CC1 [Zosuquidar]
Procedure, shortened: as §1

Row | Cell Line | relative viability ([1]; 0.02 µM) | relative viability ([1]; 0.06325 µM) | relative viability ([1]; 0.2 µM) | relative viability ([1]; 0.6325 µM) | relative viability ([1]; 2 µM) | relative viability ([2]; 0.2 µM) | relative viability ([2]; 0.6325 µM) | relative viability ([2]; 2 µM) | relative viability ([2]; 6.325 µM) | relative viability ([2]; 20 µM) | relative viability ([3]; 0.01 µM) | relative viability ([3]; 0.03162 µM) | relative viability ([3]; 0.1 µM) | relative viability ([3]; 0.3162 µM) | relative viability ([3]; 1 µM)
1 | 201T | 0.868 | 1.1 | 0.967 | 1 | 0.965 | 1 | 1.01 | 0.946 | 0.997 | 0.963 | 0.947 | 0.979 | 0.883 | 0.985 | 0.982
2 | A549 | 0.981 | 1.01 | 0.991 | 0.941 | 0.907 | 0.946 | 0.965 | 0.975 | 0.929 | 0.97 | 0.895 | 0.802 | 0.935 | 1.09 | 0.98
3 | A-427 | 0.996 | 1.01 | 1.02 | 0.972 | 0.98 | 1.03 | 1.12 | 0.962 | 1.04 | 1.06 | 1.02 | 1.01 | 0.801 | 1.14 | 0.96
4 | ABC-1 | 0.902 | 1.05 | 0.993 | 0.875 | 0.887 | 0.941 | 1.1 | 0.769 | 1.06 | 1.04 | 0.926 | 0.841 | 1.04 | 0.986 | 0.911
5 | BEN | 0.918 | 1.11 | 1 | 0.95 | 0.808 | 1.14 | 1.02 | 0.925 | 0.981 | 1.01 | 0.994 | 0.876 | 0.801 | 0.938 | 0.977
6 | CAL-12T | 1.04 | 1.14 | 1.01 | 0.982 | 1.01 | 0.965 | 1.06 | 0.896 | 0.997 | 0.957 | 1.07 | 1.16 | 0.923 | 1.2 | 0.932
7 | COR-L23 | 1.11 | 1.04 | 0.993 | 1 | 1.07 | 0.95 | 1.06 | 1.09 | 1.09 | 0.95 | 1.06 | 1.11 | 1.02 | 1.1 | 1.06
8 | COR-L 105 | 0.844 | 0.991 | – | 0.888 | 0.857 | 0.899 | 1.06 | 0.858 | 0.985 | 0.914 | 0.955 | 0.841 | 0.796 | 1.04 | 0.905
9 | Calu-6 | 1.14 | 1.08 | 0.977 | 0.987 | 0.954 | 0.992 | 1.05 | 1.01 | 1.01 | 0.929 | 0.993 | 0.989 | 1.11 | 1.04 | 1.06
10 | ChaGo-K-1 | 1.06 | 1.05 | 1 | 0.909 | 1.01 | 1.09 | 1.04 | 0.946 | 0.979 | 0.972 | 1.02 | 0.998 | 0.978 | 1.02 | 0.999
11 | EBC-1 | 1.04 | 0.901 | 0.227 | 0.174 | 0.165 | 0.956 | 1.05 | 0.957 | 0.93 | 0.984 | 1.05 | 1.01 | 0.956 | 1.11 | 0.929
12 | EKVX | 0.919 | 1.12 | 0.915 | 1.01 | 1.1 | 0.968 | 1.02 | 0.922 | 0.976 | 1.09 | 0.952 | 0.961 | 0.737 | 1.02 | 0.97
13 | EMC-BAC-2 | 0.776 | 1.1 | 1.15 | 1.04 | 1.01 | 1.02 | 1.26 | 0.947 | 1.12 | 0.999 | 1.01 | 0.955 | 0.89 | 1.12 | 0.73
14 | EPLC-272H | 0.921 | 1.17 | 0.821 | 0.872 | 0.856 | 0.98 | 1.16 | 0.952 | 1.02 | 1.04 | 0.963 | 0.995 | 0.781 | 1.06 | 0.892
15 | H3255 | 0.948 | 1.04 | – | 0.994 | 1.07 | 0.959 | 1.03 | 0.909 | 0.91 | 0.915 | 0.959 | 0.952 | 0.8 | 1.07 | 0.931
16 | HARA | 0.916 | 1.16 | 0.714 | 1.04 | 1.05 | 0.978 | 1.13 | 0.944 | 1.01 | 1.03 | 0.98 | 0.852 | 0.944 | 1.01 | 0.941
17 | HCC-15 | 0.972 | 1.11 | 1.01 | 0.994 | 1.02 | 1 | 1.03 | 0.976 | 0.998 | 0.991 | 0.959 | 0.937 | 0.956 | 1.04 | 0.972
18 | HCC-44 | 1.01 | 1.05 | 1.04 | 1.06 | 1.01 | 0.982 | 1.02 | 0.974 | 0.958 | 0.942 | 1.01 | 1.03 | 0.987 | 1.05 | 0.978
19 | HCC-78 | – | 0.958 | 0.471 | 0.37 | 0.447 | 0.984 | 0.975 | 0.968 | 0.918 | 1.15 | 1.07 | 1 | – | 0.997 | 0.897
20 | HCC-366 | 1.06 | 1.02 | 0.99 | 0.967 | 0.995 | 0.985 | 0.982 | 1.02 | 1.02 | 1.07 | 1 | 1.04 | 0.977 | 1.04 | 0.986
21 | HCC-827 | 1.07 | 1.01 | – | 1.12 | 1.06 | 1.07 | 1.13 | 1.06 | 1 | 1.02 | 0.973 | 0.977 | 0.981 | 1.06 | 0.976
22 | HOP-62 | 1.1 | 1.1 | 1.16 | 1.08 | 1.09 | 0.983 | 1.07 | 0.952 | 1.04 | 1.01 | 1.03 | 1.05 | 1.02 | 1.05 | 0.975
23 | IA-LM | 1.21 | 1.09 | 0.9 | 1.04 | 1.27 | 0.932 | 1.08 | 0.923 | 0.895 | 0.929 | 0.939 | 1.01 | 0.838 | 0.945 | 0.865
